Measurements as given in PubChem BioAssay AID2060511 (Molecular Pharmacology Branch, DTP, NCI, 2025).

System: 422866-222-R5-J1-PDC spheroids with HUVEC/MSC, viability
Test: Anticancer human tumor 422866-222-R5-J1-PDC patient-derived pancreatic adenocarcinoma cell line growth inhibition [GQUAD]
Conditions: for IC50: curve of first compound; for viability, T/C: stronger effect = lower value
Outline: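 Tumor cells were grown as complex spheroids with HUVEC endothelial cells and mesenchymal stem cells as stroma. G-quadruplex stabilizers were combined with targeted agents over half-log dilutions from near the clinical Cmax, or from 10 microM.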

[1] = second compound 0.0316 µM, first compound 0.0316 µM
[2] = second compound 0.0316 µM, first compound 0.1 µM
[3] = second compound 0.0316 µM, first compound 0.316 µM
[4] = second compound 0.0316 µM, first compound 1 µM
[5] = second compound 0.0316 µM, first compound 3.16 µM
[6] = second compound 0.0316 µM, first compound 10 µM
[7] = second compound 0.1 µM, first compound 0.0316 µM
[8] = second compound 0.1 µM, first compound 0.1 µM
[9] = second compound 0.1 µM, first compound 0.316 µM
[10] = second compound 0.1 µM, first compound 1 µM
[11] = second compound 0.1 µM, first compound 3.16 µM
[12] = second compound 0.1 µM, first compound 10 µM
[13] = second compound 0.316 µM, first compound 0.0316 µM
[14] = second compound 0.316 µM, first compound 0.1 µM
[15] = second compound 0.316 µM, first compound 0.316 µM
[16] = second compound 0.316 µM, first compound 1 µM
[17] = second compound 0.316 µM, first compound 3.16 µM
[18] = second compound 0.316 µM, first compound 10 µM
[19] = second compound 1 µM, first compound 0.0316 µM
[20] = second compound 1 µM, first compound 0.1 µM
[21] = second compound 1 µM, first compound 0.316 µM
[22] = second compound 1 µM, first compound 1 µM
[23] = second compound 1 µM, first compound 3.16 µM
[24] = second compound 1 µM, first compound 10 µM
[25] = second compound 3.16 µM, first compound 0.0316 µM
[26] = second compound 3.16 µM, first compound 0.1 µM
[27] = second compound 3.16 µM, first compound 0.316 µM
[28] = second compound 3.16 µM, first compound 1 µM
[29] = second compound 3.16 µM, first compound 3.16 µM
[30] = second compound 3.16 µM, first compound 10 µM
[31] = second compound 10 µM, first compound 0.0316 µM
[32] = second compound 10 µM, first compound 0.1 µM
[33] = second compound 10 µM, first compound 0.316 µM
[34] = second compound 10 µM, first compound 1 µM
[35] = second compound 10 µM, first compound 3.16 µM
[36] = second compound 10 µM, first compound 10 µM
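Further: spheroids exposed to compounds for seven days before reading.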
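Wherever viability, T/C is given: percent viability relative to DMSO vehicle control taken as 100%.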

In the case of `CC(=O)O[C@H]1C(=O)[C@@]2(C)[C@H]([C@H](OC(=O)c3ccccc3)[C@]3(O)C[C@H](OC(=O)[C@H](O)[C@@H](NC(=O)c4ccccc4)c4ccccc4)C(C)=C1C3(C)C)[C@]1(OC(C)=O)CO[C@@H]1C[C@@H]2O` + Cc1cnc(CNC(=O)c2c(=O)c3ccc(N4CCCN(C)CC4)nc3n3c2sc2ccccc23)cn1, the IC50 (second compound 0.0316 µM) is reported as greater than 10 µM, the IC50 (second compound 0.1 µM) is reported as greater than 10 µM and the IC50 (second compound 0.316 µM) is reported as greater than 10 µM. It also gave an IC50 (second compound 1 µM) greater than 10 µM, an IC50 (second compound 3.16 µM) greater than 10 µM and an IC50 (second compound 10 µM) greater than 10 µM. For the same molecule, the viability, T/C [1] was 81%, the viability, T/C [2] was 67.2% and the viability, T/C [3] was 80.3%. For the same molecule, the viability, T/C [4] was 71.9%, the viability, T/C [5] was 73.8% and the viability, T/C [6] was 91.6%. It also gave a viability, T/C [7] of 88%, a viability, T/C [8] of 86.3% and a viability, T/C [9] of 77.1%. For the same molecule, the viability, T/C [10] was 86.2%, the viability, T/C [11] was 95.5% and the viability, T/C [12] was 97.4%. The viability, T/C [13] was 89.5%, the viability, T/C [14] was 82.8% and the viability, T/C [15] was 85.3%. For the same molecule, the viability, T/C [16] was 107%, the viability, T/C [17] was 115% and the viability, T/C [18] was 117%. For the same molecule, the viability, T/C [19] was 79.2%, the viability, T/C [20] was 74.6% and the viability, T/C [21] was 86.5%. It also gave a viability, T/C [22] of 94.5%, a viability, T/C [23] of 117% and a viability, T/C [24] of 119%. It also gave a viability, T/C [25] of 83.3%, a viability, T/C [26] of 94.5% and a viability, T/C [27] of 94.1%. For the same molecule, the viability, T/C [28] was 91.7%, the viability, T/C [29] was 118% and the viability, T/C [30] was 107%. The viability, T/C [31] was 80.1%, the viability, T/C [32] was 78.8% and the viability, T/C [33] was 71.6%. For the same molecule, the viability, T/C [34] was 101%, the viability, T/C [35] was 104% and the viability, T/C [36] was 123%.
In the case of `COc1cc(C2c3cc4c(cc3C(OC3OC5COC(C)OC5C(O)C3O)C3COC(=O)C23)OCO4)cc(OC)c1O` (centres undefined) + Cc1cnc(CNC(=O)c2c(=O)c3ccc(N4CCCN(C)CC4)nc3n3c2sc2ccccc23)cn1, the IC50 (second compound 0.0316 µM) is reported as 3.77 µM, the IC50 (second compound 0.1 µM) is reported as greater than 10 µM and the IC50 (second compound 0.316 µM) is reported as greater than 10 µM. It also gave an IC50 (second compound 1 µM) greater than 10 µM, an IC50 (second compound 3.16 µM) greater than 10 µM and an IC50 (second compound 10 µM) greater than 10 µM. For the same molecule, the viability, T/C [1] was 98.4%, the viability, T/C [2] was 78.3% and the viability, T/C [3] was 83.7%. The viability, T/C [4] was 59.4%, the viability, T/C [5] was 53.5% and the viability, T/C [6] was 39.1%. For the same molecule, the viability, T/C [7] was 92.8%, the viability, T/C [8] was 79.2% and the viability, T/C [9] was 77.6%. The viability, T/C [10] was 66.8%, the viability, T/C [11] was 59.2% and the viability, T/C [12] was 49.7%. The viability, T/C [13] was 81.6%, the viability, T/C [14] was 94.8% and the viability, T/C [15] was 84%. The viability, T/C [16] was 80.9%, the viability, T/C [17] was 71.8% and the viability, T/C [18] was 58.9%. The viability, T/C [19] was 81.9%, the viability, T/C [20] was 92% and the viability, T/C [21] was 91.4%. The viability, T/C [22] was 91.4%, the viability, T/C [23] was 81.1% and the viability, T/C [24] was 56%. The viability, T/C [25] was 84.6%, the viability, T/C [26] was 87.3% and the viability, T/C [27] was 82.4%. It also gave a viability, T/C [28] of 85.5%, a viability, T/C [29] of 81.6% and a viability, T/C [30] of 60%. It also gave a viability, T/C [31] of 86.2%, a viability, T/C [32] of 80.4% and a viability, T/C [33] of 85.5%. For the same molecule, the viability, T/C [34] was 93.2%, the viability, T/C [35] was 85.1% and the viability, T/C [36] was 52.1%.
